Measurements published in patent US20170355687A1, “ANTIBACTERIAL BENZOTHIAZOLE DERIVATIVES” (Actelion Pharmaceuticals Ltd, priority 2014, published 2017).
Values after ≈ are worked out from the molar mass of the structure shown.

Key:
Test in all cases: Bacterial growth minimal inhibitory concentration, microdilution in cation-adjusted Mueller-Hinton Broth (CLSI M7-A7)
Assay type in all cases: cell-based
E. coli ATCC25922 = conditions: quinolone-sensitive strain; for MIC: Escherichia coli, ATCC25922, read-out: MIC for E. coli ATCC25922
Procedure: (§1) Minimal Inhibitory Concentrations (MICs; mg/L) were determined in cation-adjusted Mueller-Hinton Broth by a microdilution method following the description given in “Methods for Dilution Antimicrobial Susceptibility Tests for Bacteria that Grow Aerobically”, Approved standard, 7th ed., Clinical and Laboratory Standards Institute (CLSI) Document M7-A7, Wayne, Pa., USA (2006).
(§2) All Example compounds were tested against several Gram-positive and Gram-negative bacteria. […] K pneumoniae A-651 is a multiply-resistant (in particular quinolone-resistant) strain, while E. coli ATCC25922 and P. aeruginosa ATCC27853 are quinolone-sensitive strains.

K. Pneumoniae A-651 = conditions: multiply-resistant (in particular quinolone-resistant) strain; for MIC: Klebsiella pneumoniae, read-out: MIC for K. Pneumoniae A-651
Procedure: as §1, §2

P. aeruginosa ATCC27853 = conditions: quinolone-sensitive strain; for MIC: Pseudomonas aeruginosa, ATCC27853, read-out: MIC for P. aeruginosa ATCC27853
Procedure: as §1, §2

| Compound | MIC for E. coli ATCC25922 (E. coli ATCC25922) [µg/mL] | MIC for K. Pneumoniae A-651 (K. Pneumoniae A-651) [µg/mL] | MIC for P. aeruginosa ATCC27853 (P. aeruginosa ATCC27853) [µg/mL] | MIC (E. coli ATCC25922) [µg/mL] | MIC (K. Pneumoniae A-651) [µg/mL] | MIC (P. aeruginosa ATCC27853) [µg/mL] |
| --- | --- | --- | --- | --- | --- | --- |
| CN(C)CC#CC#Cc1ccc2nc(CC[C@](C)(C(=O)NO)S(C)(=O)=O)sc2c1 [Example 17, (R)-4-(6-(5-(dimethylamino)penta-1,3-diyn-1-yl)benzo[d]thiazol-2-yl)-N-hydroxy-2-methyl-2-(methylsulfonyl)butanamide] |  |  |  | 0.125 (≈ 0.288 µM) | 0.25 (≈ 0.577 µM) | 2 (≈ 4.61 µM) |
| C[C@@](CCc1nc2ccc(C#CC#CC3CCNCC3)cc2s1)(C(=O)NO)S(C)(=O)=O [Example 19, (R)-N-hydroxy-2-methyl-2-(methylsulfonyl)-4-(6-(piperidin-4-ylbuta-1,3-diyn-1-yl)benzo[d]thiazol-2-yl)butanamide] |  |  |  | 8 (≈ 17.4 µM) | 16 (≈ 34.8 µM) | 4 (≈ 8.7 µM) |
| C[C@@](CCc1nc2ccc(C#CC#CC3CCN(C(=O)CO)CC3)cc2s1)(C(=O)NO)S(C)(=O)=O [Example 22, (R)-N-hydroxy-4-(6-((1-(2-hydroxyacetyl)piperidin-4-yl)buta-1,3-diyn-1-yl)benzo[d]thiazol-2-yl)-2-methyl-2-(methylsulfonyl)butanamide] |  |  |  | 0.5 (≈ 0.966 µM) | 1 (≈ 1.93 µM) | 2 (≈ 3.86 µM) |
| C[C@]1(CO)C[C@@H]1C#CC#Cc1ccc2nc(CC[C@](C)(C(=O)NO)S(C)(=O)=O)sc2c1 [Example 26, (R)-N-hydroxy-4-(6-(((1R,2S)-2-(hydroxymethyl)-2-methylcyclopropyl)buta-1,3-diyn-1-yl)benzo[d]thiazol-2-yl)-2-methyl-2-(methylsulfonyl)butanamide] |  |  |  | 0.063 (≈ 0.137 µM) | 0.125 (≈ 0.271 µM) | 0.5 (≈ 1.09 µM) |
| C[C@@](CCc1nc2ccc(C#CC#C[C@H]3C[C@]3(F)CO)cc2s1)(C(=O)NO)S(C)(=O)=O [Example 27, (R)-4-(6-(((1R,2R)-2-fluoro-2-(hydroxymethyl)cyclopropyl)buta-1,3-diyn-1-yl)benzo[d]thiazol-2-yl)-N-hydroxy-2-methyl-2-(methylsulfonyl)butanamide] |  |  |  | 0.063 (≈ 0.136 µM) | 0.125 (≈ 0.269 µM) | 0.25 (≈ 0.538 µM) |

Second part, the molecule after the results:

| MIC for E. coli ATCC25922 (E. coli ATCC25922) [µg/mL] | MIC for K. Pneumoniae A-651 (K. Pneumoniae A-651) [µg/mL] | MIC for P. aeruginosa ATCC27853 (P. aeruginosa ATCC27853) [µg/mL] | MIC (E. coli ATCC25922) [µg/mL] | MIC (K. Pneumoniae A-651) [µg/mL] | MIC (P. aeruginosa ATCC27853) [µg/mL] | Compound |
| --- | --- | --- | --- | --- | --- | --- |
| 0.25 | 0.5 | 1 |  |  |  | C[C@@](CCc1nc2ccc(C#CC#C[C@@H]3C[C@@H](O)[C@@H](O)C3)cc2s1)(C(=O)NO)S(C)(=O)=O [Example 13, (R)-4-(6-(((1s,3R,4S)-3,4-dihydroxycyclopentyl)buta-1,3-diyn-1-yl)benzo[d]thiazol-2-yl)-N-hydroxy-2-methyl-2-(methylsulfonyl)butanamide] |
|  |  |  | 0.5 (≈ 1.08 µM) | 1 (≈ 2.16 µM) | 1 (≈ 2.16 µM) | C[C@@](CCc1nc2ccc(C#CC#CCC3(O)COC3)cc2s1)(C(=O)NO)S(C)(=O)=O [Example 14, (R)-N-hydroxy-4-(6-(5-(3-hydroxyoxetan-3-yl)penta-1,3-diyn-1-yl)benzo[d]thiazol-2-yl)-2-methyl-2-(methylsulfonyl)butanamide] |
|  |  |  | 0.125 (≈ 0.271 µM) | 0.5 (≈ 1.09 µM) | 1 (≈ 2.17 µM) | C[C@@]1(C#CC#Cc2ccc3nc(CC[C@](C)(C(=O)NO)S(C)(=O)=O)sc3c2)C[C@H]1CO [Example 15, (R)-N-hydroxy-4-(6-(((1R,2R)-2-(hydroxymethyl)-1-methylcyclopropyl)buta-1,3-diyn-1-yl)benzo[d]thiazol-2-yl)-2-methyl-2-(methylsulfonyl)butanamide] |
|  |  |  | 4 (≈ 8.41 µM) | 8 (≈ 16.8 µM) | 4 (≈ 8.41 µM) | C[C@@](CCc1nc2ccc(C#CC#C[C@@H]3CC[C@@H](N)CO3)cc2s1)(C(=O)NO)S(C)(=O)=O [Example 16, (R)-4-(6-(((2S,5R)-5-aminotetrahydro-2H-pyran-2-yl)buta-1,3-diyn-1yl)benzo[d]thiazol-2-yl)-N-hydroxy-2-methyl-2-(methylsulfonyl)butanamide] |
|  |  |  | 1 (≈ 2.1 µM) | 2 (≈ 4.2 µM) | 2 (≈ 4.2 µM) | C[C@@](CCc1nc2ccc(C#CC#CC3(O)CCOCC3)cc2s1)(C(=O)NO)S(C)(=O)=O [Example 18, (R)-N-hydroxy-4-(6-((4-hydroxytetrahydro-2H-pyran-4-yl)buta-1,3-diyn-1-yl)benzo[d]thiazol-2-yl)-2-methyl-2-(methylsulfonyl)butanamide] |
|  |  |  | 0.5 (≈ 1.08 µM) | 0.5 (≈ 1.08 µM) | 1 (≈ 2.16 µM) | C[C@@](CCc1nc2ccc(C#CC#CC3(CO)COC3)cc2s1)(C(=O)NO)S(C)(=O)=O [Example 20, (R)-N-hydroxy-4-(6-((3-(hydroxymethyl)oxetan-3-yl)buta-1,3-diyn-1-yl)benzo[d]thiazol-2-yl)-2-methyl-2-(methylsulfonyl)butanamide] |
|  |  |  | 0.5 (≈ 1.02 µM) | 1 (≈ 2.04 µM) | 1 (≈ 2.04 µM) | C[C@@](CCc1nc2ccc(C#CC#CC3CN(C(=O)CO)C3)cc2s1)(C(=O)NO)S(C)(=O)=O [Example 25, (R)-N-hydroxy-4-(6-((1-(2-hydroxyacetyl)azetidin-3-yl)buta-1,3-diyn-1-yl)benzo[d]thiazol-2-yl)-2-methyl-2-(methylsulfonyl)butanamide] |
